Test results taken from paper PMC7985170, “Marine Peptide-N6NH2 and Its Derivative-GUON6NH2 Have Potent Antimicrobial Activity Against Intracellular Edwardsiella tarda in vitro and in vivo” (Frontiers in Microbiology, 2021).
Values after ≈ are worked out from the molar mass of the structure shown. Where a SMILES comes first, the peptide text is derived from it. Bridges are numbered along the chain shown (N, C = ends).

Assays:
Gram-positive bacteria = test: Geometric mean of MICs and therapeutic index; type: cell-based
Protocol: (§1) The antimicrobial activity of peptides was determined by the microbroth dilution method ([Zhang et al., 2014]). The bacterial strains were incubated in Mueller-Hinton (MH) medium at 28°C or 37°C overnight. Bacteria (1 × 10^5 CFU/mL) were added into 96-well plates, followed by the addition of serial dilutions of peptides (from 0.0625 to 128 μg/mL). The plates were incubated at 37°C for 18–24 h. The minimal inhibitory concentration (MIC) value was determined as the lowest peptide concentration at which no bacterial growth was observed.
(§2) The geometric mean (GM) of MICs of peptides against Gram-negative and Gram-positive bacteria was calculated, and the result was shown in Table 3. […] For Gram-negative bacteria, the TI value of GUON6NH2 (53.33) was very close to N6NH2 (58.18), while for positive bacteria, the TI value of GUON6NH2 (12.8) was slightly higher than that of N6NH2 (12.31), indicating their huge therapeutic potential. For Gram-positive bacteria, DN6NH2 had the highest TI value and the best therapeutic potential.

[1] = system: Gram-negative and Gram-positive bacteria (ALL); test: Geometric mean of MICs and therapeutic index; type: cell-based
Protocol: as §1, §2

Gram-negative bacteria = test: Geometric mean of MICs and therapeutic index; type: cell-based
Protocol: as §1, §2

LPS = LPS binding, BODIPY-TR-cadaverine (BC) probe displacement; conditions: 0.5 μM LPS, 5 μM BC, Tris buffer pH 7.4; peptides 0.049 to 50 μM
Protocol: The BODIPY’-TR-cadaverine (BC) probe was used to determine the ability of peptides to bind to LPS ([Wang et al., 2020]). 0.5 μM LPS was incubated with 5 μM BC in […] Tris buffer (pH 7.4) for 4 h at 37°C. Subsequently, the peptides were added into the mixture and the final concentrations of peptides ranged from 0.049 to 50 μM. Ampicillin was used as the negative control. Changes in fluorescence were measured by a fluorescence spectrophotometry at room temperature (excitation/emission, 580/620 nm).

murine erythrocytes = type: cell-based, mouse
Protocol: The hemolysis of peptides was evaluated by determining the amount of hemoglobin that was released from fresh mouse erythrocytes ([Flamm et al., 2019]). The blood cells were washed three times with 10 mM PBS (pH 7.4) and centrifuged for 10 min (1,500 rpm). Erythrocyte solution (8%, v/v) was mixed with peptide solutions (1:1) and incubated for 1 h at 37°C. The mixture was then centrifuged for 5 min (1,500 rpm), and the absorbance of supernatants was measured at 540 nm. Values of 0 and 100% hemolysis were determined in PBS and 0.1% triton X-100, respectively. The hemolysis of peptides was calculated using the following formula: Hemolysis (%) = [(Abs treated sample – Abs negative control)/(Abs positive control – Abs negative control)] × 100.

S. typhimurium ATCC14028 = type: cell-based, Salmonella typhimurium
Protocol: as §1

E. tarda [2] = test: SEM and TEM morphology; type: cell-based, Edwardsiella tarda; conditions: 4× MIC, 2 h
Protocol: To further characterize the bactericidal effects of the peptides, scanning electron microscopy (SEM) and transmission electron microscopy (TEM) were used to visualize morphological changes ([Yang et al., 2019]). E. tarda was cultured to logarithmic growth stage (10^8 CFU/mL) and diluted with 0.01 M PBS (pH 7.4) to OD600 nm = 1. E. tarda cells were treated with 4× MIC peptides at 37°C for 2 h and the untreated cells were used as the control. Briefly, after centrifugation, the bacterial cells were washed three times with 0.1 M PBS (pH 7.2) and fixed overnight at 4°C with 2.5% glutaraldehyde. After washing again, the cells were fixed with 1% osmium tetroxide (OsO4) for 2 h and dehydrated in a graded ethanol series (50%–70%–85%–95% × 2–100%, × 2) for 15 min, respectively. The samples were then dried by CO2, sputtered with gold-palladium, and observed on a QUANTA200 SEM (FEI, Philips, Netherlands).
E. tarda cells were treated peptides before fixation as described above. The bacteria were washed with 0.01 M PBS (pH 7.4) for five times, 7 min each time, and fixed with 1% osmium acid buffer (4°C) for 1 h. After dehydration with a graded acetone series (30%–50%–70%–85%–95%–100% × 3), the cells were immersed in mixtures of acetone and resin (3:1, 1:1 and 1:3, respectively) for 40 min and in a pure epoxy resin overnight. The samples were then embedded in embedding medium and polymerized at 45°C for 3 h and at 65°C for 24 h, respectively. The sections were prepared using an ultramicrotome, stained with 1% uranyl acetate, and visualized by a JEM1400 (JEDL, Tokyo, Japan).

E. coli CVCC1515 = type: cell-based, Escherichia coli
Protocol: as §1

E. coli CVCC25922 = type: cell-based, Escherichia coli
Protocol: as §1

S. pullorum CVCC1789 = type: cell-based, Salmonella pullorum
Protocol: as §1

[3] = system: Salmonella pullorum CVCC1802; type: cell-based
Protocol: as §1

[4] = system: Staphylococcus aureus ATCC43300; type: cell-based
Protocol: as §1

[5] = system: Salmonella typhimurium CVCC533; type: cell-based; conditions: murium CVCC533
Protocol: as §1

Edwardsiella tarda = type: cell-based
Protocol: as §1

Escherichia coli CVCC195 = type: cell-based
Protocol: as §1

[6] = system: Staphylococcus hyicus 437-2; type: cell-based
Protocol: as §1

S. hyicus 15095 = type: cell-based, Staphylococcus hyicus
Protocol: as §1

E. tarda [7] = test: Time-killing curve; type: cell-based, Edwardsiella tarda
Protocol: Time-killing curve of peptides was performed according to the previous method ([Flamm et al., 2019]). E. tarda was cultured to logarithmic phase, diluted in Mueller Hinton broth (MHB) (1 × 10^5 CFU/mL) containing 1×, 2×, or 4× MIC of peptides, and cultured at 28°C (200 rpm). PBS was added as a control. Bacterial samples (100 μL) were removed at different time intervals (0, 0.5, 1, 1.5, 2, 4, 6, 8, 10, 12, 22, and 24 h) and were counted on MH solid plates. The time-killing curves of peptides were plotted. Bacterial cells treated with 2× MIC norfloxacin and without treatment were used as the positive and blank controls, respectively.

[8] = type: cell-based, Streptococcus enteritidis
Protocol: as §1

[9] = system: inner membrane of E. tarda; test: Inner membrane penetration, PI staining by flow cytometry; type: cell-based, Edwardsiella tarda; conditions: 1× MIC, 5–30 min at 37°C, 1 × 10^8 CFU/mL
Protocol: Mid-log phase E. tarda cells (1 × 10^8 CFU/mL) were incubated with or without 1× MIC peptides solutions at 37°C for 5, 15, and 30 min, respectively. After washing twice with PBS, bacterial cells were then incubated with 50 μg/mL propidium iodide (PI) for 15 min and analyzed using a FACS Calibur Flow Cytometer (BD, United States) ([Stearns-Kurosawa et al., 2011]).

S. aureus ATCC546 = type: cell-based, Staphylococcus aureus
Protocol: as §1

S. aureus ATCC25923 = type: cell-based, Staphylococcus aureus
Protocol: as §1

E. tarda [10] = test: Mouse peritonitis model, survival; type: in vivo; conditions: 1 μmoL/kg i.p. at 1 h postinfection, ICR mice, 5 days
Protocol: To establish a peritonitis mouse model, six-week-old female ICR mice (five mice/group) were intraperitoneally injected with E. tarda (1 × 10^9 CFU/mL, 0.5 mL). The infected mice were followed by the intraperitoneal injection of N6NH2, GUON6NH2 or norfloxacin (1 μmol/kg of body weight, 0.2 mL) at 1 h postinfection, respectively. Mice injected with only bacteria or PBS were used as negative or blank controls. The survival of mice was recorded daily for 5 days.

E. tarda [11] = test: Post-antibiotic effect (PAE); type: cell-based, Edwardsiella tarda; conditions: 2 h exposure, E. tarda, 28°C, n = 3
Protocol: E. tarda cells were incubated with peptides (1×, 2×, or 4× MIC) for 2 h, diluted, and cultured at 28°C and 200 rpm. An aliquot of samples (50 μL) were taken for CFU counts at different time intervals until bacterial cultures became turbid. Bacteria treated with the N6NH2, GUON6NH2 or vancomycin were used as the positive control; bacteria without treatment were used as the blank control. The PAE was calculated using the following formula: PAE = T–C, where T is the time for the CFU counts to increase by 10-fold above the count observed immediately after drug removal, and C is the corresponding time for the untreated control ([Oh et al., 2019]).

E. tarda [12] = test: Mouse peritonitis model, bacterial counts in peritoneal fluid; type: in vivo; conditions: 1 μmol/kg i.p.
Protocol: The mice were intraperitoneally infected with E. tarda (1 × 10^9 CFU/mL, 0.5 mL) and then injected with N6NH2 and GUON6NH2 (1 μmol/kg) or PBS (the blank control) in the same way at 1 h after infection. The mice were then killed at 24 h after treatment, and peritoneal fluids were obtained by washing with 5 mL of ice-cold PBS. The total number of E. tarda in the fluids was determined before any further procedures. For intracellular bacteria quantification, the other fraction was centrifuged for 5 min at 4°C (1,000 rpm). The cells were collected, treated with 1,000 μg/mL gentamicin for 30 min at 37°C to kill extracellular bacteria, and washed with ice-cold PBS twice to remove extracellular gentamicin. Subsequently, the cells were lysed and the bacteria were counted as described above for the in vitro experiment ([Kim et al., 2011]).

[13] = therapeutic index (TI), cell selectivity

SMILES: CC(C)[C@H](N)C(=O)N[C@@H](Cc1ccccc1)C(=O)N[C@@H](C)C(=O)N[C@@H](Cc1c[nH]c2ccccc12)C(=O)N[C@@H](CC(N)=O)C(=O)N[C@H](C(=O)N[C@H]1CSSC[C@@H](C(=O)N[C@@H](Cc2c[nH]cn2)C(=O)N[C@@H](CCCNC(=N)N)C(=O)N[C@@H](CCCNC(=N)N)C(=O)N[C@@H](C)C(=O)N[C@@H](CC(N)=O)C(N)=O)NC(=O)[C@H](C(C)C)NC(=O)[C@H](CCCNC(=N)N)NC(=O)[C@H](C(C)C)NC(=O)[C@H](C(C)C)NC(=O)[C@H](CC(N)=O)NC(=O)[C@H](CCCNC(=N)N)NC(=O)[C@H](Cc2ccc(O)cc2)NC(=O)[C@H](C(C)C)NC1=O)C(C)C [V112N6NH2] (H-VFAWNVCVYRNVVRVCHRRAN-NH2; disulfide 7-16 (inferred); N-terminus assumed)
- GM Gram-positive bacteria (Gram-positive bacteria; geometric mean (GM) of MICs against Gram-positive bacteria): 25.6 µg/mL
- TI Gram-positive bacteria (Gram-positive bacteria; [13]): 10
- GM ALL ([1]; geometric mean (GM) of MICs, all strains): 16.4 µg/mL
- TI ALL [1, 13]: 15.61
- GM Gram-negative bacteria (Gram-negative bacteria; geometric mean (GM) of MICs against Gram-negative bacteria): 11.8 µg/mL
- TI Gram-negative bacteria (Gram-negative bacteria; [13]): 21.69
- ability to bind to LPS (BC probe displacement) (LPS): V112N6NH2 > GUON6NH2 > N6NH2 > DN6NH2 > N6PNH2
- MHC (murine erythrocytes): >128 µg/mL
- MIC (S. typhimurium ATCC14028): 16 µg/mL (≈ 6.25 µM)
- morphological changes by SEM (E. tarda [2]): some protrusions were observed on the cell surfaces
- MIC (E. coli CVCC1515): 4 µg/mL (≈ 1.56 µM)
- MIC (E. coli CVCC25922): 8 µg/mL (≈ 3.13 µM)
- MIC (S. pullorum CVCC1789): 16 µg/mL (≈ 6.25 µM)
- MIC [3]: 8 µg/mL (≈ 3.13 µM)
- MIC [4]: 32 µg/mL (≈ 12.5 µM)
- MIC [5]: 16 µg/mL (≈ 6.25 µM)
- MIC (Edwardsiella tarda): 32 µg/mL (≈ 12.5 µM)
- MIC (Escherichia coli CVCC195): 8 µg/mL (≈ 3.13 µM)
- MIC [6]: 32 µg/mL (≈ 12.5 µM)
- MIC (S. hyicus 15095): 16 µg/mL (≈ 6.25 µM)
- time to completely kill E. tarda (E. tarda [7]; 2× or 4× MIC, MHB, 1 × 10^5 CFU/mL, 28°C): ≤ 6 h
- MIC [8]: 2 µg/mL (≈ 0.782 µM)
- penetration rate (PI-stained cells) [9]: 0.85–30.1%
- MIC (S. aureus ATCC546): 16 µg/mL (≈ 6.25 µM)
- MIC (S. aureus ATCC25923): 32 µg/mL (≈ 12.5 µM)

SMILES: CCn1cc(C(=O)O)c(=O)c2cc(F)c(N3CCNCC3)cc21 [norfloxacin, reference compound]
- ability to bind to LPS (BC probe displacement) (LPS): did not replace BC probe to bind to LPS
- morphological changes by SEM (E. tarda [2]): no significant change in the bacterial cell structures
- ultrastructure changes by TEM (E. tarda [2]): no significant change in bacterial cells
- survival rate of mice (E. tarda [10]): 40%
- time of bacterial re-growth (E. tarda [7]; 2× MIC): 12 h
- PAE (E. tarda [11]; 1× MIC): 2.65 h
- PAE (E. tarda [11]; 2× MIC): 3.48 h
- PAE (E. tarda [11]; 4× MIC): 3.12 h
- decrease of total numbers of bacteria (E. tarda [12]; peritoneal fluid 24 h after treatment): 0.49 Log10 CFU
- reduction of intracellular bacteria (E. tarda [12]; peritoneal fluid cells 24 h after treatment): 0.35 Log10 CFU
